Results taken from article PMC8838534, “Unprecedented Epimerization of an Azithromycin Analogue: Synthesis, Structure and Biological Activity of 2′-Dehydroxy-5″-Epi-Azithromycin” (Molecules, 2022).
Converted amounts (≈) assume the structure as drawn. “And” between values parts separate entries of the source, which are not always exact repeats. Equal entries are not always repeated.

How the values were obtained:
[1] = system: Escherichia coli (ATCC25922); assay: Antimicrobial activity, CLSI broth microdilution MIC; format: cell-based
From the text: (§1) The Clinical and Laboratory Standards (CLSI) recommended procedure (Document M7-[…], Methods for Dilution Susceptibility Tests for Bacteria that Grow Aerobically) by broth microdilution was used to determine the antimicrobial activity of compounds against Escherichia coli (ATCC25922), Staphylococcus aureus (ATCC13709), Streptococcus pneumoniae (ATCC49619), Streptococcus pyogenes (ATCC700294), Moraxella catarrhalis (ATCC23246) and Haemophilus influenzae (ATCC49247). The minimum inhibitory concentration (MIC) is determined as the lowest concentration of compound that inhibited visible growth.

[2] = system: Streptococcus pyogenes (ATCC700294); assay: as above; format: cell-based; conditions: read-out: MIC S. pyogenes
From the text: as §1

[3] = system: Staphylococcus aureus (ATCC13709); assay: as above; format: cell-based; conditions: read-out: MIC S. aureus
From the text: as §1

[4] = system: Haemophilus influenzae (ATCC49247); assay: as above; format: cell-based; conditions: read-out: MIC H. influenzae
From the text: as §1

[5] = system: Streptococcus pneumoniae (ATCC49619); assay: as above; format: cell-based; conditions: read-out: MIC S. penumoniae
From the text: as §1

[6] = system: Moraxella catarrhalis (ATCC23246); assay: as above; format: cell-based
From the text: as §1

[7] = system: neutrophil accumulation in BALF of cigarette-smoke-challenged mice; assay: Cigarette-smoke-induced pulmonary inflammation; format: in vivo, mouse; conditions: oral dosing 2 h prior smoke challenge on each smoke day
[8] = Pharmacokinetics in mouse; format: in vivo, Balb/c mice
Description: (§2) Pharmacokinetic profiles were determined in male Balb/c mice and CD Sprague-Dawley rats (Charles River Laboratories, Germany), following single oral (p.o.) and single intravenous (i.v.) bolus administration. The compound was administered at a dose of […] i.v. and 10 mg/kg p.o. Blood was obtained by serial blood sampling from the tail vein over a range of time points up to 30 h postdose. Samples were extracted by protein precipitation and subjected to quantitative analysis by LC-MS/MS using compound-specific mass transitions. Drug concentration−time profiles were generated and noncompartmental PK analysis used to generate estimates of half-life, clearance, volume of distribution, and oral bioavailability.

Pharmacokinetics in dog = format: in vivo, Beagle dogs
[9] = system: neutrophil accumulation in BALF of LPS-challenged BALB/cJ mice; assay: LPS-induced pulmonary neutrophilia; format: in vivo, mouse (BALB/cJ); conditions: 200 mg/kg intraperitoneally 2 h prior LPS, BALF 24 h after LPS
Description: Vehicle, azithromycin, and compound 4 were administered intraperitoneally at a dose of 200 mg/kg (b.w.) to 10-week-old male BALB/cJ mice (Charles River, Lyon, France) 2 h before intranasal challenge with 2 μg of LPS from E. coli. Then, 24 h after LPS application animals were euthanized and bronchoalveolar lavage was performed. Total number of cells in BALF was counted with a hematological analyzer (Sysmex SF 3000, Sysmex Corp., Kobe, Japan). Percentages of neutrophils were determined by morphological examination of at least 200 cells on smears prepared by cytocentrifugation (Cytospin-3, Thermo Fisher Scientific Inc, Waltham, MA, USA) and stained with Kwik-Diff staining set (Thermo Fisher Scientific Inc., USA).
All values are presented as means ± S.E.M. To define statistically significant differences in cell numbers among vehicle-treated and macrolide-treated mice the data were subjected to one-way ANOVA followed by Dunnett’s Multiple Comparison Test using GraphPad Prism version 5.00 for Windows (GraphPad Software, San Diego, CA, USA). The level of significance was set at p < 0.05 in all cases.

Pharmacokinetics in rat = format: in vivo, Sprague Dawley rats
Description: as §2

recombinant human CYP2C9 = target: T1, recombinant human CYP2C9 (Homo sapiens, UniProt P11712); assay: In vitro cytochrome inhibition; format: in vitro ADME; conditions: recombinant human CYP, fluorescent probe; read-out: IC50 inhibition of cytochrome 2C9
T1 construct: purchased Cypex
Description: (§3) Test compounds were incubated using a concentration range from 0.1 to 100 µM with recombinant human CYP1A2, 2C9, 2C19, 2D6 and 3A4 (Cypex). The compounds were preincubated at 37 °C for 5 or 10 min with the CYP enzyme isoforms, in the presence of 50 mM phosphate buffer (pH 7.4) and fluorescent probes. The incubations were started by addition of a cofactor solution containing NADP, glucose 6-phosphate and glucose 6-phosphate dehydrogenase. The plates were incubated for 10 min at 37 °C reading the fluorescence signal on a plate reader throughout. The fluorescence data were then used to calculate the IC50 values for each compound.

recombinant human CYP1A2 = target: T2, recombinant human CYP1A2 (Homo sapiens, UniProt P05177); assay: In vitro cytochrome inhibition; format: in vitro ADME; conditions: recombinant human CYP, fluorescent probe; read-out: IC50 inhibition of cytochrome 1A2
T2 construct: purchased Cypex
T2 sequence (P05177 1-516): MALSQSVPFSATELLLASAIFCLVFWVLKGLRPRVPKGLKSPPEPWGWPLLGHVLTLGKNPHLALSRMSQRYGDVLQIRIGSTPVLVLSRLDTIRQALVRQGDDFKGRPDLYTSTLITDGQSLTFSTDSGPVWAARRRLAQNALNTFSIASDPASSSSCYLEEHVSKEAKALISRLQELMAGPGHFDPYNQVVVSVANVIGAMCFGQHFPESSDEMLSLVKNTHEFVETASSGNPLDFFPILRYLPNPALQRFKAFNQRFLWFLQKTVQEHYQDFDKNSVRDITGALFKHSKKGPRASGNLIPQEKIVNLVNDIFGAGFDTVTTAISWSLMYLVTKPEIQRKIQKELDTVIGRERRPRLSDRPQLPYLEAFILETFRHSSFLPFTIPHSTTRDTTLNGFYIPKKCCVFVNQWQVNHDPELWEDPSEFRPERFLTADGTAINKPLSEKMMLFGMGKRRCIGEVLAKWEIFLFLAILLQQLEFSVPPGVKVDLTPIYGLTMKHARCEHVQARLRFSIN
Description: as §3

recombinant human CYP2D6 = target: T3, recombinant human CYP2D6 (Homo sapiens, UniProt P10635); assay: In vitro cytochrome inhibition; format: in vitro ADME; conditions: recombinant human CYP, fluorescent probe; read-out: IC50 inhibition of cytochrome 2D6
T3 construct: purchased Cypex
Description: as §3

recombinant human CYP3A4 = target: T4, recombinant human CYP3A4 (Homo sapiens, UniProt P08684); assay: In vitro cytochrome inhibition; format: in vitro ADME; conditions: recombinant human CYP, fluorescent probe; read-out: IC50 inhibition of cytochrome 3A4
T4 construct: purchased Cypex
Description: as §3

[10] = target: T5, recombinant human CYP2C19 (Homo sapiens, UniProt P33261); assay: In vitro cytochrome inhibition; format: in vitro ADME; conditions: recombinant human CYP, fluorescent probe; read-out: IC50 inhibition of cytochrome 2C19
T5 construct: purchased Cypex
Description: as §3

T1 sequence (P11712 whole entry): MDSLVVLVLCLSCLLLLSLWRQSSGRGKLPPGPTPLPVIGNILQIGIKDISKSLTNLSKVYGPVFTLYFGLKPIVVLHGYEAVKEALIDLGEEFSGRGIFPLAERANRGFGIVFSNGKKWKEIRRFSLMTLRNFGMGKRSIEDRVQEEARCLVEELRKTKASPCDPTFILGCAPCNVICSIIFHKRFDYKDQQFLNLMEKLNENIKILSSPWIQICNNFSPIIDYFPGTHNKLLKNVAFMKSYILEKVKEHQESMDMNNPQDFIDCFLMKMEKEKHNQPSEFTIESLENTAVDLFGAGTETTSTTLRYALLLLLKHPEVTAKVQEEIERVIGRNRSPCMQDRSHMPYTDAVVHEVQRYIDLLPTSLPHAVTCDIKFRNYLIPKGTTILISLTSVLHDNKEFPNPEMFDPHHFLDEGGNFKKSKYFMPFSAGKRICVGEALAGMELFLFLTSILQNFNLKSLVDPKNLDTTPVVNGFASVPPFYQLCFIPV
T3 sequence (P10635 whole entry): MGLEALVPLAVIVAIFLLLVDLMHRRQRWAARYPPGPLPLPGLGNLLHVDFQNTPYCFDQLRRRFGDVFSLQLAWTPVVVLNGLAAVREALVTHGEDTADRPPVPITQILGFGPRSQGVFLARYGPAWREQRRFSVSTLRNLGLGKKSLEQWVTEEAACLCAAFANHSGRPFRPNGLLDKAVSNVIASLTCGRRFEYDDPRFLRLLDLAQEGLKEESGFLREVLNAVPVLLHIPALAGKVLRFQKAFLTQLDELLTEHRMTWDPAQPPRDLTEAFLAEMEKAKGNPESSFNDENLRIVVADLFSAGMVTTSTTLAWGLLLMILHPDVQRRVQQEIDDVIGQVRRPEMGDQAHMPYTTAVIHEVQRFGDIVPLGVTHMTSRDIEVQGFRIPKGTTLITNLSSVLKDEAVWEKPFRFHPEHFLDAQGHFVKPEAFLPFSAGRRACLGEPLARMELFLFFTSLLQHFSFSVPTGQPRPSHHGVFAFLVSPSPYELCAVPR
T5 sequence (P33261 whole entry): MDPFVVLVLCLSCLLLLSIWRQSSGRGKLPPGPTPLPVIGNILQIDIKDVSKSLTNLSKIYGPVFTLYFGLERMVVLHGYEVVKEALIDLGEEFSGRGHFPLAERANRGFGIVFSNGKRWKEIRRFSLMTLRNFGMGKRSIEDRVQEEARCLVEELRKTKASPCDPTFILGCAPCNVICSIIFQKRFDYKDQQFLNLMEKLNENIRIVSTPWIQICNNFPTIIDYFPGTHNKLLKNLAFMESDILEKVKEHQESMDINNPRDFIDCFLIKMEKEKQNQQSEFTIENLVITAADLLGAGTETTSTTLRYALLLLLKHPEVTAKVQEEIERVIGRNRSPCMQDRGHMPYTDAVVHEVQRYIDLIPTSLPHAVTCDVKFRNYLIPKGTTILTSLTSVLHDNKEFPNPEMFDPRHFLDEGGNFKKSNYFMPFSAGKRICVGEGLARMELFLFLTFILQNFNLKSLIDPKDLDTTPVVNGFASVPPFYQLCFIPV
T4 sequence (P08684 whole entry): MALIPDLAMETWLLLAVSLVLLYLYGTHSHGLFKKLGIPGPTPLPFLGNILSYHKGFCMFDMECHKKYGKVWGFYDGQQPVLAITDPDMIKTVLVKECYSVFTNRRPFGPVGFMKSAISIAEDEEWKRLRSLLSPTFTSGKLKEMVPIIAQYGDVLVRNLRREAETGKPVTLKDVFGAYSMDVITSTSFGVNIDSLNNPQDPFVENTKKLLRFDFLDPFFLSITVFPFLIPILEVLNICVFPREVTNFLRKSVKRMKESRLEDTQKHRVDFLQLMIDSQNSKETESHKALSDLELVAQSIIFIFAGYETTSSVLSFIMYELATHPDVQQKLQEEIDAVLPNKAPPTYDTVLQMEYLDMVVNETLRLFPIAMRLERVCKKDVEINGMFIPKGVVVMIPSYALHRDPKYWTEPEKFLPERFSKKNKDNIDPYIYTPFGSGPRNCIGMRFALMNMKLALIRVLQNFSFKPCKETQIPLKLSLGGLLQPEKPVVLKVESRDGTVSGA

CC[C@H]1OC(=O)[C@H](C)[C@@H](O[C@H]2C[C@@](C)(OC)[C@@H](O)[C@H](C)O2)[C@H](C)[C@@H](O[C@H]2C[C@@H](N(C)C)C[C@@H](C)O2)[C@](C)(O)C[C@@H](C)CN(C)[C@H](C)[C@@H](O)[C@]1(C)O [compound 3, 2 ′-dehydroxy azithromycin]
MIC [1]: > 64 µg/mL | MIC [2]: 64 µg/mL (≈ 87.3 µM) | MIC [3]: > 64 µg/mL | MIC [4]: > 64 µg/mL | MIC [5]: 32 µg/mL (≈ 43.7 µM) | MIC [6]: 16 µg/mL (≈ 21.8 µM)

CC[C@H]1OC(=O)[C@H](C)[C@@H](O[C@H]2C[C@@](C)(OC)[C@@H](O)[C@@H](C)O2)[C@H](C)[C@@H](O[C@H]2C[C@@H](N(C)C)C[C@@H](C)O2)[C@](C)(O)C[C@@H](C)CN(C)[C@H](C)[C@@H](O)[C@]1(C)O [compound 4, 2′-dehydroxy-5″-epi-azithromycin]
Neutrophil accumulation in BALF after cigarette-smoke challenge [7]: dose-dependently inhibited the accumulation of neutrophils | systemic clearance as % of liver blood flow [8]: ca. 4.6 % of liver blood flow | Oral F ([8]; 10 mg/kg p.o., 10 mg/kg): 12% and 12.4 ± 4.2% | half-life ([8]; male, Balb/c, whole blood): ~660 min | Vd ([8]; male, Balb/c, whole blood, intravenous, 2 mg/mg, read-out: Vss): 2 ± 0.8 L/kg | clearance ([8]; male, Balb/c, whole blood, iv, 2 mg/mg, blood): 4.1 ± 1.1 mL/min/kg | Oral F (Pharmacokinetics in dog): 62% and 62 ± 10% | systemic clearance as % of liver blood flow (Pharmacokinetics in dog): ~18 % of liver blood flow | half-life (Pharmacokinetics in dog; beagle, in vivo): ~1260 min | clearance (Pharmacokinetics in dog; beagle, in vivo, intravenous): 5.5 ± 0.9 mL/min/kg | Vd (Pharmacokinetics in dog; beagle, in vivo, intravenous, read-out: Vss): 6.9 ± 2 L/kg | Neutrophil accumulation in BALF after intranasal LPS challenge [9]: inhibited neutrophil accumulation | systemic clearance as % of liver blood flow (Pharmacokinetics in rat): ~17.1 % of liver blood flow | half-life (Pharmacokinetics in rat; Sprague-Dawley, whole blood): ~900 min | Vd (Pharmacokinetics in rat; Sprague-Dawley, whole blood, intravenous, 2 mg/mg, read-out: Vss): 11.7 ± 1.9 L/kg | clearance (Pharmacokinetics in rat; Sprague-Dawley, whole blood, iv, 2 mg/mg, blood): 14.5 ± 8.5 mL/min/kg | IC50 (recombinant human CYP2C9): > 33 µM | IC50 (recombinant human CYP1A2): > 33 µM | IC50 (recombinant human CYP2D6): > 33 µM | IC50 (recombinant human CYP3A4): > 33 µM | IC50 [10]: > 33 µM | MIC [1]: > 64 µg/mL | MIC [2]: > 64 µg/mL | MIC [3]: > 64 µg/mL | MIC [4]: > 64 µg/mL | MIC [5]: > 64 µg/mL | MIC [6]: > 64 µg/mL

CC[C@H]1OC(=O)[C@H](C)[C@@H](O[C@H]2C[C@@](C)(OC)[C@@H](O)[C@H](C)O2)[C@H](C)[C@@H](O[C@@H]2O[C@H](C)C[C@H](N(C)C)[C@H]2O)[C@](C)(O)C[C@@H](C)CN(C)[C@H](C)[C@@H](O)[C@]1(C)O [AZM, azithromycin]
Neutrophil accumulation in BALF after cigarette-smoke challenge [7]: dose-dependently inhibited the accumulation of neutrophils | MIC [1]: 2 µg/mL (≈ 2.67 µM) | MIC [2]: < 0.125 µg/mL | MIC [3]: 0.5 µg/mL (≈ 0.668 µM) | MIC [4]: 2 µg/mL (≈ 2.67 µM) | MIC [5]: < 0.125 µg/mL | MIC [6]: < 0.125 µg/mL
